The values that follow come from US20180282279A1, “Pantothenamide Analogues” (Radboud Universitair Medisch Centrum, priority 2014, published 2018).

Values after ≈ are worked out from the molar mass of the structure shown. “Also recorded” adds a separate entry of the source. Where two headings read alike, the source gives them in different places.

The nature of series [1]: Pharmacokinetic study in rats. The series is classed as in vivo. To be noted: rat, blood, 50 mg/kg in saline, oral administration. On the procedure:
To address the question if increased stability would also lead to improved bioavailability in vivo, a pharmacokinetic study was performed. Briefly, the pantothenamides N5-Pan (an antibacterial compound) and CXP18.3-002 (an antimalarial compound), and their corresponding inverted amides CXP18.6-013 and CXP18.6-006 were administered to rats at 50 mg/kg dissolved in saline. Blood samples were collected from 3 rats before the experiment and at 0.25, 0.5, 1, 2, 4, 6, 8, 12 and 24 h. The concentrations of the compounds were analyzed by LC-MS/MS (AB Sciex API-4000 system). Data were analyzed by the Non-compartmental analysis tool of Phoenix WinNonlin (Version 6.3).

Series [2] relates to fetal bovine serum as a source of pantetheinase activity. In words: Stability in vitro in fetal bovine serum (LC-MS). The series is classed as in vitro ADME. On the procedure: FIG. 1: Inverted amides are stable in serum. The stability of pantothenamide CXP18.3-002 (A-C) and its corresponding inverted amide CXP18.6-006 (D-F) was measured using LC-MS analysis after overnight incubation in buffer (A and D), buffer with 10% fetal bovine serum (B and E) and buffer with 10% FBS supplemented with the vanin inhibitor RR6 (C-F). Fetal bovine serum contains a high level of vanin (pantetheinase) activity. Both compounds are stable after incubation in buffer alone (figure A and D). The small peaks in the amine channels, with molecular masses of 163 (A) en 191 (D), are either the result of disruption of compound during ionization (CXP18.3-002-sample) or background from the buffer (CXP18.6-006-sample). […] Explanation of masses and compounds: CXP18.3-002, exact mass 322.189, found at mass 305 (—H2O (18)+H^+(1)). Amine from CXP18.3-002, exact mass 121.089, found at 163 (+ACN(41) +H^+(1)). Pantothenic acid, exact mass 219.111, found at mass 220 (+H^+(1)). RR6, exact mass 293.163, found at 294 (+H^+(1)). CXP18.6-006, exact mass 322.189, found at mass 305 (—H2O (18) +H^+(1)). Amine from CXP18.6-006, exact mass 150.068, found at 151 (+H^+(1)).
Conventional pantothenamides are hydrolysed by pantetheinases in body fluids as shown before (Jansen et al 2013) thereby losing their antimicrobial activity (Jansen et al 2013, Spry et al 2013, PLoS One 8:e54974). Bioisosteric pantothenamides retained their in vitro antimicrobial activity in the presence of serum, as will be shown in the next examples. To examine the stability of analogues in vitro, CXP18.3-002 and its bioisostere CXP18.6-006 were incubated for 16 h at room temperature in PBS with 10% fetal bovine serum as a source of pantetheinase activity. Samples were taken and analyzed by LC-MS using a Shimadzu LC10ATvp HPLC coupled to a Shimadzu LCMS2010 A mass spectrometer. […] The hydrolysis of the pantothenamides by fetal bovine serum could be inhibited by the addition of RR6, a potent inhibitor of pantetheinase activity, as described before (Jansen en al 2013).

Another series deals with Staphylococcus aureus. In words: Bacterial growth assay and MIC determination, S. aureus. The format is cell-based. The note with it: Staphylococcus aureus. On the procedure: (§1) Strains of Escherichia coli, Staphylococcus aureus and Staphylococcus epidermidis, were grown overnight in 1% Bacto tryptone medium (BD, Sparks, Md.). Streptococcus pyogenes was grown overnight in Bacto Todd Hewitt Broth medium (BD, Sparks, Md.). Cultures were then diluted 1:1,000 in fresh assay medium supplemented with or without 20% fetal bovine serum (FBS; HyClone, Celbio, Logan, Utah) and added to 96-well sterile enzyme-linked immunosorbent assay (ELISA) plates (100 μl per well). The compounds to be tested were diluted in the medium without serum and added to the bacteria (100 μl per well). Plates were incubated at 37° C., and bacterial growth was monitored over time by reading the optical density at 490 nm using a microplate reader (model 450; Bio-Rad Laboratories Inc., Hercules, Calif.). Streptococcus pneumoniae strains were grown to mid-log phase (OD620 of 0.3) and stored in 15% glycerol at […] till further use. Minimal inhibitory concentration (MIC) of antibiotics was determined according to standard procedures. Bacteria were diluted 10-fold in Mueller-Hinton medium (BD, Sparks, Md.) and added to 96-well sterile ELISA plates (150 μl per well). The compounds to be tested were diluted in the medium without serum and added to the bacteria (150 μl per well). Plates were incubated overnight at 37° C. in 5% CO2. The MIC was defined as the lowest concentration of compound at which no growth was visible with the naked eye.

The test system of a further series is Streptococcus pyogenes. Description: Bacterial growth assay and MIC determination, S. pyogenes. The series is classed as cell-based. The note with it: Streptococcus pyogenes; S. pyogenes, serum −; read-out: MIC. On the procedure: as §1
The test system of another series is Escherichia coli. In words: Bacterial growth assay and MIC determination, E. coli. To be noted: Escherichia coli, serum −, read-out: MIC. The series is classed as cell-based. How it is done: as §1

As a reminder, the AUC(0-inf) is total exposure, with the tail of the curve extrapolated. A high value points to high exposure. What is called Cmax is the highest concentration seen after dosing. By Tmax is commonly meant the time at which the peak concentration occurs. As usually defined, the half-life is how long it takes for the measured level to halve. A low value points to rapid decline.

On to `CC(C)(CO)[C@@H](O)C(=O)NCCNC(=O)CCc1ccccc1` [CXP18.6-006], for which, in series [1], the AUC(0-inf) was 6620 ng·h/mL, the concentration peaked (Cmax) at 3360 ng/mL and the time to peak (Tmax) amounted to 0.33 h. In series [1] (elimination phase), the half-life is 3.6 h. Moreover, the “stability in buffer with 10% fetal bovine serum” value in series [2] (PBS with 10% FBS, 16 h (overnight), room temperature) was “remains intact; also recorded: No appreciable degradation”. In addition, the “stability after overnight incubation in buffer” value in series [2] (buffer alone) is “stable”. Besides, the “stability in buffer with 10% FBS supplemented with the vanin inhibitor RR6” value in series [2] (overnight) is listed as “had no effect”.
Consider `CC(C)(CO)[C@@H](O)C(=O)NCCNC(=O)CCc1ccccc1F` [CXP18.6-017], for which the MIC in the series with Staphylococcus aureus (S. aureus, serum −, read-out: MIC) is 2 µg/mL (≈ 5.88 µM); with Staphylococcus aureus (Table 1, most sensitive species S. aureus (SA), read-out: MIC (μg/ml) for most sensitive bacterial species), 2 µg/mL (≈ 5.88 µM); with Streptococcus pyogenes, 8 µg/mL (≈ 23.5 µM); with Escherichia coli, > 256 µg/mL.
